Laboratory results: patent US9239334B2, “Fatty acid C16: 1N7-palmitoleate a lipokine and biomarker for metabolic status” (PRESIDENT AND FELLOWS OF HARVARD COLLEGE, priority 2008, dated 2016)

Experiments:
C2C12 cells = assay: Glucose uptake in C2C12 myotubes; assay type: cell-based
Description: FIG. 3H is the glucose uptake in C2C12 myotubes treated with insulin or palmitoleate. Top panel is immunoblotting of C2C12 cell lysates treated with insulin or palmitoleate using anti-Glut1 or Glut4 antibodies. *: p<0.05.
The effect of C16:1n7-palmitoleate on muscle insulin signaling was explored by pre-treating C2C12 myotubes with either palmitate or palmitoleate overnight and then stimulating the cells with insulin. […] Conversely, C16:1n7-palmitoleate had little effect on its own in this in vitro setting (FIG. 3G). When cells were co-treated with both palmitate and palmitoleate, however, palmitoleate rescued the palmitate-induced reduction in insulin-stimulated AKT phosphorylation. […] The mechanism of this increase is not, apparently, associated with alterations in the absolute levels of Glut1 and Glut4 proteins (FIG. 3H).

[1] = test system: insulin receptor, IRS-1, IRS-2 and AKT phosphorylation in liver; assay: Insulin signaling in liver of lipid-infused mice (immunoblotting); assay type: in vivo; conditions: fatty acid:palmitoleate infusion 3.3 μl/min
Description: FIGS. 7A-7G show data on the regulation of insulin signaling and glucose metabolism by palmitoleate. FIG. 7A is the basal and insulin-stimulated phosphorylation of insulin receptor (IR), insulin receptor substrate-1 (IRS-1) and -2 (IRS-2) and AKT in liver of mice infused with vehicle (Veh), TG:palmitoleate (C16:1n7) or TG:palmitate (C16). Representative blots are shown and quantifications on the right are averaged results of three mice in each treatment group. […] Representative blots are shown and quantifications on the right are averaged results of three mice in each treatment group.
The left panel presents the insulin-stimulated phosphorylation of insulin receptor and AKT in liver of mice infused with vehicle or palmitoleate. […] Mice were infused with vehicle or palmitoleate at 3.3 μl/min for six hrs, and insulin (1 U/Kg) was injected through the infusing tubing. Three minutes after insulin injection, tissues were collected and immunoblotting analyses were performed.
The present invention also provides for the regulation of insulin action by increased circulating palmitoleate. To study whether palmitoleate regulates systemic metabolic responses, lipid infusions were administered in conscious mice. Lipid infusion has been used widely to investigate the relationship between plasma FFAs and insulin resistance, but almost all studies using this protocol utilized preparations of natural lipid products containing a variety of fatty acids. Kim et al., 114 J. Clin. Invest. 823-27 (2004); Kim et al., 277 J. Biol. Chem. 32915-22 (2002); Yu et al., 277 J. Biol. Chem. 50230-36 (2002). […]
Samples of 200 μl serum were collected using heparin-coated glass tubes and spun at 13,000 g in a microcentrifuge to separate the plasma. […] Tissue protein lysates was separated with SDS-PAGE gels and phosphorylated or total proteins were detected with the following antibodies: phospho AKT Serine 473, AKT, insulin receptor, phospho-tyrosine (Santa Cruz Biotech.); IRS-1 and IRS-2 (Upstate); phospho-GSK and GSK (Cell Signaling Tech.); phospho-insulin receptor from (Calbiocbem). […]

CCCCCC/C=C\CCCCCCCC(=O)O [palmitoleate, C16:1n7-palmitoleate]
glucose uptake (C2C12 cells): stimulated glucose uptake into C2C12 cells to a level similar to insulin | liver insulin signaling (insulin receptor and AKT activation) [1]: enhanced
